In patent US11026427B2, “Microbiocidal oxadiazole derivatives” (SYNGENTA PARTICIPATIONS AG, priority 2016, dated 2021) one finds pest or weed control, melting point and inhibition of growth data, which are given here for 18 compounds.

The test system of series [1] is Puccinia recondita f. Sp. tritici. Kind of series: Puccinia recondita f. sp. tritici / wheat / leaf disc preventative (brown rust). Conditions: foliar, 200 ppm in the applied formulation, compared to untreated control, read-out: disease control. Type of series: in vivo. The method, then: Leaf disks or leaf segments of various plant species are cut from plants grown in a greenhouse. The cut leaf disks or segments are placed in multiwell plates (24-well format) onto water agar. The leaf disks are sprayed with a test solution before (preventative) or after (curative) inoculation. Compounds to be tested are prepared as DMSO solutions (max. 10 mg/ml) which are diluted to the appropriate concentration with 0.025% Tween20 just before spraying. The inoculated leaf disks or segments are incubated under defined conditions (temperature, relative humidity, light, etc.) according to the respective test system. A single evaluation of disease level is carried out 3 to 14 days after inoculation, depending on the pathosystem. Percent disease control relative to the untreated check leaf disks or segments is then calculated. Wheat leaf segments cv. Kanzler were placed on agar in multiwell plates (24-well format) and sprayed with the formulated test compound diluted in water. The leaf disks were inoculated with a spore suspension of the fungus 1 day after application. The inoculated leaf segments were incubated at 19° C. and 75% relative humidity (rh) under a light regime of 12 hours light/12 hours darkness in a climate cabinet and the activity of a compound was assessed as percent disease control compared to untreated when an appropriate level of disease damage appears in untreated check leaf segments (7 to 9 days after application). The following compounds at 200 ppm in the applied formulation give at least 80% disease control in this test when compared to untreated control leaf disks under the same conditions, which show extensive disease development.

In series [2] the test system is Glomerella lacenarium (Colletotrichum lacenarium). Kind of series: Glomerella lacenarium (Colletotrichum lacenarium) liquid culture / cucumber / preventative (anthracnose). Type of series: cell-based. Conditions: 20 ppm in the applied formulation, growth inhibition measured photometrically, compared to untreated control, read-out: disease control. The method, then:
Mycelia fragments or conidia suspensions of a fungus prepared either freshly from liquid cultures of the fungus or from cryogenic storage, are directly mixed into nutrient broth. DMSO solutions of the test compound (max. 10 mg/ml) are diluted with 0.025% Tween20 by a factor of 50 and 10 μl of this solution is pipetted into a microtiter plate (96-well format). The nutrient broth containing the fungal spores/mycelia fragments is then added to give an end concentration of the tested compound. The test plates are incubated in the dark at 24° C. and 96% relative humidity. The inhibition of fungal growth is determined photometrically after 2 to 7 days, depending on the pathosystem, and percent antifungal activity relative to the untreated check is calculated.
Conidia of the fungus from cryogenic storage are directly mixed into nutrient broth (PDB—potato dextrose broth). After placing a (DMSO) solution of test compound into a microtiter plate (96-well format), the nutrient broth containing the fungal spores is added. The test plates are incubated at 24° C. and the inhibition of growth is measured photometrically 3 to 4 days after application.
The following compounds at 20 ppm in the applied formulation give at least 80% disease control in this test when compared to untreated control under the same conditions, which show extensive disease development.

In the next series the test system is Phakopsora pachyrhizi. Kind of series: Phakopsora pachyrhizi / soybean / leaf disc preventative (Asian soybean rust). It counts as in vivo. Conditions: foliar, 200 ppm in the applied formulation, compared to untreated control, read-out: disease control. The method, then: (§1) Leaf disks or leaf segments of various plant species are cut from plants grown in a greenhouse. The cut leaf disks or segments are placed in multiwell plates (24-well format) onto water agar. The leaf disks are sprayed with a test solution before (preventative) or after (curative) inoculation. Compounds to be tested are prepared as DMSO solutions (max. 10 mg/ml) which are diluted to the appropriate concentration with 0.025% Tween20 just before spraying. The inoculated leaf disks or segments are incubated under defined conditions (temperature, relative humidity, light, etc.) according to the respective test system. A single evaluation of disease level is carried out 3 to 14 days after inoculation, depending on the pathosystem. Percent disease control relative to the untreated check leaf disks or segments is then calculated.
Soybean leaf disks are placed on water agar in multiwell plates (24-well format) and sprayed with the formulated test compound diluted in water. One day after application leaf discs are inoculated by spraying a spore suspension on the lower leaf surface. After an incubation period in a climate cabinet of 24-36 hours in darkness at 20° C. and 75% rh leaf disc are kept at 20° C. with 12 h light/day and 75% rh. The activity of a compound is assessed as percent disease control compared to untreated when an appropriate level of disease damage appears in untreated check leaf disks (12 to 14 days after application).
(§2) The following compounds at 200 ppm in the applied formulation give at least 80% disease control in this test when compared to untreated control leaf disks under the same conditions, which show extensive disease development.

The test system of series [3] is Puccinia recondita f. Sp. tritici. Kind of series: Puccinia recondita f. sp. tritici / wheat / leaf disc curative (brown rust). Type of series: in vivo. Conditions: foliar, 200 ppm in the applied formulation, compared to untreated control, read-out: disease control. The protocol: as §1
Wheat leaf segments cv. Kanzler are placed on agar in multiwell plates (24-well format). The leaf segments are then inoculated with a spore suspension of the fungus. Plates were stored in darkness at 19° C. and 75% relative humidity. The formulated test compound diluted in water was applied 1 day after inoculation. The leaf segments were incubated at 19° C. and 75% relative humidity under a light regime of 12 hours light/12 hours darkness in a climate cabinet and the activity of a compound was assessed as percent disease control compared to untreated when an appropriate level of disease damage appears in untreated check leaf segments (6 to 8 days after application).
as §2

Some results are limits rather than exact numbers.

The melting point is the temperature of the solid-liquid transition. As for `COc1ccc(C(=O)c2ccc(-c3noc(C(F)(F)F)n3)cc2)nc1` [Compound 1.20, (5-methoxy-2-pyridyl)-[4-[5-(trifluoromethyl)-1,2,4-oxadiazol-3-yl]phenyl]methanone], the melting point was in the range of 65 to 73 °C. Also, the pest or weed control at 200 ppm in series [1] is ≥ 80%. The inhibition of growth at 20 ppm in series [2] was ≥ 80%. Further, in the series with Phakopsora pachyrhizi, the pest or weed control at 200 ppm was ≥ 80%. In series [3], the pest or weed control at 200 ppm is ≥ 80%.
Consider `Cc1ccc(C(O)c2ccc(-c3noc(C(F)(F)F)n3)cc2)nc1` (stereo not drawn) [Compound 2.21, (5-methyl-2-pyridyl)-[4-[5-(trifluoromethyl)-1,2,4-oxadiazol-3-yl]phenyl]methanol], for which the pest or weed control at 200 ppm in series [1] and in series [3] was ≥ 80% in each case.
`OC(c1ccc(-c2noc(C(F)(F)F)n2)cc1)c1cscn1` (stereo not drawn) [Compound 2.18, thiazol-4-yl-[4-[5-(trifluoromethyl)-1,2,4-oxadiazol-3-yl]phenyl]methanol] displayed a melting point of 56 to 60 °C. The pest or weed control at 200 ppm in series [1] is ≥ 80%. Also, the inhibition of growth at 20 ppm in series [2] was ≥ 80%. Besides, the pest or weed control at 200 ppm in series [3] is ≥ 80%.
With `Cc1nc(C(=O)c2ccc(-c3noc(C(F)(F)F)n3)cc2)cs1` [Compound 1.33, (2-methylthiazol-4-yl)-[4-[5-(trifluoromethyl)-1,2,4-oxadiazol-3-yl]phenyl]methanone], the pest or weed control at 200 ppm in series [1] and in series [3] was ≥ 80% each time. Also, the inhibition of growth at 20 ppm in series [2] is ≥ 80%.
On to `Cc1cc(C(C)(O)c2ccc(-c3noc(C(F)(F)F)n3)cc2)on1` (stereo not drawn) [Compound 2.26, 1-(3-methylisoxazol-5-yl)-1-[4-[5-(trifluoromethyl)-1,2,4-oxadiazol-3-yl]phenyl]ethanol], for which the pest or weed control at 200 ppm in series [1] and in series [3] was ≥ 80% in each case.
With `Cc1nc(C(O)c2ccc(-c3noc(C(F)(F)F)n3)cc2)cs1` (stereo not drawn) [Compound 2.20, (2-methylthiazol-4-yl)-[4-[5-(trifluoromethyl)-1,2,4-oxadiazol-3-yl]phenyl]methanol], the melting point lay within 95 to 99 °C. Also, in series [1], the pest or weed control at 200 ppm is ≥ 80%. Besides, the pest or weed control at 200 ppm in series [3] is ≥ 80%.
Compound `Cc1ncc(C(O)c2ccc(-c3noc(C(F)(F)F)n3)cc2)s1` (stereo not drawn) [Compound 2.22, (2-methylthiazol-5-yl)-[4-[5-(trifluoromethyl)-1,2,4-oxadiazol-3-yl]phenyl]methanol] had a melting point of 104 to 108 °C. Besides, in series [1], the pest or weed control at 200 ppm is ≥ 80%. For the same compound, the pest or weed control at 200 ppm in series [3] is ≥ 80%.
On to `N#Cc1ccc(C(=O)c2ccc(-c3noc(C(F)(F)F)n3)nc2)cc1` [Compound 1.30, 4-[6-[5-(trifluoromethyl)-1,2,4-oxadiazol-3-yl]pyridine-3-carbonyl]benzonitrile], for which the melting point lay in the range of 142 to 146 °C. In addition, the pest or weed control at 200 ppm in series [1] is ≥ 80%. In addition, the inhibition of growth at 20 ppm in series [2] was ≥ 80%. Besides, in series [3], the pest or weed control at 200 ppm was ≥ 80%.
Turning to `Cc1cccc(C(O)c2ccc(-c3noc(C(F)(F)F)n3)cc2)n1` (stereo not drawn) [Compound 2.13, (6-methyl-2-pyridyl)-[4-[5-(trifluoromethyl)-1,2,4-oxadiazol-3-yl]phenyl]methanol], the pest or weed control at 200 ppm (in series [1]; in the series with Phakopsora pachyrhizi; in series [3]) was ≥ 80% in each case. For the same compound, in series [2], the inhibition of growth at 20 ppm was ≥ 80%.
As to `Cc1ccc(C(=O)c2ccc(-c3noc(C(F)(F)F)n3)cc2)nc1` [Compound 1.37, (5-methyl-2-pyridyl)-[4-[5-(trifluoromethyl)-1,2,4-oxadiazol-3-yl]phenyl]methanone], the pest or weed control at 200 ppm in series [1] and in series [3] was ≥ 80% in each case. Further, the inhibition of growth at 20 ppm in series [2] is ≥ 80%.
Regarding `CCC(O)(c1ccc(-c2noc(C(F)(F)F)n2)cc1)c1cc(C)no1` (stereo not drawn) [Compound 2.27, 1-(3-methylisoxazol-5-yl)-1-[4-[5-(trifluoromethyl)-1,2,4-oxadiazol-3-yl]phenyl]propan-1-ol], the pest or weed control at 200 ppm in series [1] and in series [3] was ≥ 80% each time.
On to `CCc1cc(C(=O)c2ccc(-c3noc(C(F)(F)F)n3)cc2)on1` [Compound 1.14, (3-ethylisoxazol-5-yl)-[4-[5-(trifluoromethyl)-1,2,4-oxadiazol-3-yl]phenyl]methanone], for which the pest or weed control at 200 ppm (in series [1]; with Phakopsora pachyrhizi; in series [3]) was ≥ 80% throughout. For the same compound, the inhibition of growth at 20 ppm in series [2] is ≥ 80%.
Regarding `C=C(C)CC(O)(c1ccc(-c2noc(C(F)(F)F)n2)cc1)c1cc(C)no1` (stereo not drawn) [Compound 2.24, 3-methyl-1-(3-methylisoxazol-5-yl)-1-[4-[5-(trifluoromethyl)-1,2,4-oxadiazol-3-yl]phenyl]but-3-en-1-ol], the pest or weed control at 200 ppm in series [1] and in series [3] was ≥ 80% throughout.
Consider `Cc1ncc(C(=O)c2ccc(-c3noc(C(F)(F)F)n3)cc2)s1` [Compound 1.34, (2-methylthiazol-5-yl)-[4-[5-(trifluoromethyl)-1,2,4-oxadiazol-3-yl]phenyl]methanone], for which the melting point was 116 to 120 °C. Besides, the inhibition of growth at 20 ppm in series [2] is ≥ 80%. Further, in series [3], the pest or weed control at 200 ppm was ≥ 80%.
As for `O=C(c1ccc(-c2noc(C(F)(F)F)n2)cc1)c1ccno1` [Compound 1.35, isoxazol-5-yl-[4-[5-(trifluoromethyl)-1,2,4-oxadiazol-3-yl]phenyl]methanone], the melting point is 112 to 118 °C. Also, in series [1], the pest or weed control at 200 ppm was ≥ 80%. In addition, in series [2], the inhibition of growth at 20 ppm is ≥ 80%. In series [3], the pest or weed control at 200 ppm is ≥ 80%.
Consider `OC(c1ccc(-c2noc(C(F)(F)F)n2)cc1)c1ccccn1` (stereo not drawn) [Compound 2.12, 2-pyridyl-[4-[5-(trifluoromethyl)-1,2,4-oxadiazol-3-yl]phenyl]methanol], for which the pest or weed control at 200 ppm (in series [1]; with Phakopsora pachyrhizi; in series [3]) was ≥ 80% in each case. The inhibition of growth at 20 ppm in series [2] was ≥ 80%.
In the case of `Cc1cccc(C(=O)c2ccc(-c3noc(C(F)(F)F)n3)cc2)n1` [Compound 1.18, (6-methyl-2-pyridyl)-[4-[5-(trifluoromethyl)-1,2,4-oxadiazol-3-yl]phenyl]methanone], the pest or weed control at 200 ppm (in series [1]; with Phakopsora pachyrhizi; in series [3]) was ≥ 80% in each case. Also, the inhibition of growth at 20 ppm in series [2] was ≥ 80%.
Turning to `Cc1cc(C(=O)c2ccc(-c3noc(C(F)(F)F)n3)cc2)on1` [Compound 1.13, (3-methylisoxazol-5-yl)-[4-[5-(trifluoromethyl)-1,2,4-oxadiazol-3-yl]phenyl]methanone], the pest or weed control at 200 ppm (in series [1]; with Phakopsora pachyrhizi; in series [3]) was ≥ 80% in each case. In addition, the inhibition of growth at 20 ppm in series [2] is ≥ 80%.
